Laboratory results as given in patent publication US20080118489A1, “Charge-Modified Lysozyme Antimicrobial Compositions, Surfactants, and Methods for Infections and Cystic Fibrosis” (priority 2005, published 2008).
Converted amounts (≈) assume the structure as drawn.

How the values were obtained:
Calf thymus (CT) DNA = assay: SAXS of DNA + tobramycin (+ cationic lipid) suspensions; assay type: binding
Excerpt: For our studies of the sequestration of aminoglycoside antibiotics by model CF sputum and subsequent release by the administration of surfactants we used the following materials. The aminoglycoside antibiotic used in our experiments was Tobramycin (Sigma Aldrich), commonly used to treat infections of Pseudomonas aeruginosa in CF patients. […] For the DNA+tobramycin experiments we used Calf thymus (CT) DNA (USB Corp. Cleveland Ohio), purified it using standard techniques, and resuspended it in an aqueous solution of 100 mM NaCl 5 mM Tris and 5 mM PIPES adjusted to pH 7. DNA has a charge of approximately −2/base pair.
Surfactant materials used in the present experiments were a mixture of two lipids DOTAP (1,2-Dioleoyl-3-Trimethylammonium-Propane) and DOPE (1,2-Dioleoyl-sn-Glycero-3-Phosphoethanolamine) (Avanti Polar lipids, Alabaster Al.) in mass ratios of about 70:30 and about 25:75. DOTAP is a cationic lipid (charge of +1) with no curvature, and DOPE is a neutral lipid with negative curvature. Briefly, the lipids were first dissolved in chloroform, then dried under nitrogen and redissolved in an aqueous solution. The aqueous salt solution was then sonicated to form unilamellar lipid vescicles, and filtered through 0.2 micron pores.
Aminoglycoside antibiotic sequestration by negatively charged bio-polymers in respiratory mucous of CF patients was measured via two techniques. The first method was to use x-ray diffraction techniques to discern the structure of suspensions of mixtures of biopolymers and antibiotic. Specific x-ray diffraction studies were done to determine the structure of mixtures of the DNA with tobramycin and the lipid mixture. The isoelectric DNA-lipid-monovalent salt solutions were sealed in 1.5 mm quartz capillaries (Hilgenberg GmbH; Malsfeld, Germany) and mixed thoroughly by centrifugation. The approximate sample volume in the capillary was 30 μl-60 μl. SAXS experiments were performed as described previously. Tobramycin has charge of approximately +5 at physiological pH, whereas DNA is negatively charged, thus when the ratio of net DNA charge is approximately equal to the net tobramycin charge (T/D˜1), the tobramycin condenses the DNA. The resulting structure is a bundle of DNA. The structures observed via x-ray diffraction indicate whether or not the tobramycin is sequestered with the DNA or free in suspension. The present invention uses positively charged lipids to replace the tobramycin in these bundles, thereby increasing the efficacy of the antibiotic. Consequently, our experiments used a fixed DNA concentration of 3 mg/ml (x-ray experiments) and a varied concentration of tobramycin and/or lipid. Concentrations are varied such that the ratio of positive to negative charges is known. Similar x-ray diffraction studies can be conducted wherein mucin, instead of DNA, is the sequestration agent to examine mucin+tobramycin+lipid complexes and kinetics.

[1] = tested on: Pseudomonas aeruginosa (PA01); assay: Bacterial killing assay, tobramycin with or without mucin; assay type: cell-based
Protocol: Tobramycin sequestration was also measured via bacteriological killing assays. In these bacterial killing assay experiments Pseudomonas aeruginosa (PA01), the primary bacteria responsible for infection in CF patients, was incubated in the presence of mucin, DNA, tobramycin, lipid or various mixtures of these four materials. Killing assays were performed in the following manner: PA01 was grown in cation adjusted Mueller-Hinton media to a concentration greater than 5×10^8, sedimented by centrifugation and resuspended in a buffered solution of 5 mM Tris 5 mM PIPES and 100 mM NaCl at pH 7.2. A quantity of […]. of PAO1 were incubated for 3.5 hours in the buffered salt solution with varied concentrations of tobramycin, DNA, mucin, and lipids. The mucin concentrations were either 0 mg/ml (control) or 10 mg/ml which is near the physiologically measured concentrations of mucin. Lipids added to the bacterial solution were added in varying concentrations in order to determine the amount needed to release tobramycin from its strong interaction with mucin and/or DNA. The bacterial solution was serially diluted and plated on MH-agar plates. Plates were incubated overnight and the number of bacterial colonies counted.

F-actin = biological target: T1, F-actin (Oryctolagus cuniculus, UniProt P68135); assay: SAXS of F-actin / hen egg white lysozyme bundles; assay type: binding, rabbit
T1 construct: prepared from a lyophilized powder of rabbit skeletal muscle; purchased Cytoskeleton, Inc. (Denver, Col.); host or cells: rabbit skeletal muscle (tissue-derived)
Protocol: Monomeric G-actin (MW 42,000) was prepared from a lyophilized powder of rabbit skeletal muscle purchased from Cytoskeleton, Inc. (Denver, Col.). The non-polymerizing G-actin solution contained a 5 mM TRIS buffer at pH 8.0, with 0.2 mM CaCl2, 0.5 mM ATP, and 0.2 mM DTT and 0.01% NaN3. G-actin (2 mg/ml) was polymerized into F-actin (linear charge density λA˜−1 e /2.5 Å at pH 7) upon the addition of salt (100 mM KCl). Human plasma gelsolin (Cytoskeleton, Inc., Denver, Col.) was used to control the average F-actin length between 0.1 μm to 10 μm. The filaments were treated with phalloidin (Sigma Aldrich, St. Louis, Mo., MW 789.2) to prevent actin depolymerization and resuspended to a final concentration of ˜26.67 mg/ml using Millipore (Billerica, Mass.) H2O (18.2MΩ). Hen Egg White Lysozyme (MW 14,300, Sigma Aldrich, St. Louis, Mo.) was dissolved in Millipore H2O (18.2MΩ) to a final concentration ˜25 mg/ml. Lysozyme carries a pH dependent charge of +9 or +10 and has dimensions of approximately ˜26Å×26Å×45 Å.
The F-actin—lysozyme isoelectric point is found at a concentration ratio of ˜2.5:1 F-actin:lysozyme. X-ray samples were prepared at various F-actin:lysozyme concentration ratios on either side of the isoelectric point, including 2:1, 2.5:1, 3:1, and 5:1. […]

| Compound | ratio of tobramycin charge to DNA charge (T/D) at which bundled DNA peak appears (Calf thymus (CT) DNA; DNA 3 mg/ml, pH 7) | tobramycin concentration at which bundled DNA peak appears (Calf thymus (CT) DNA; DNA 3 mg/ml, pH 7) | preference of interaction, DNA versus F-actin (Calf thymus (CT) DNA; F-actin 5 mg/ml + DNA 1 mg/ml + tobramycin) | sequestration of tobramycin by DNA at raised lipid concentration (Calf thymus (CT) DNA; T/D approaching 1, L/D=2) | sequestration of tobramycin by DNA without lipid (Calf thymus (CT) DNA; T/D=0.5 and T/D=0.9, absence of lipids) | sequestration of tobramycin by DNA with cationic lipid (Calf thymus (CT) DNA; lipid concentration greater than or equal to that required for DNA charge neutralization) | tobramycin concentration until which mucin inhibits killing ability ([1]; 10 mg/ml mucin) | MIC ([1]; Pseudomonas aeruginosa, 3.5 hours, 5 mM Tris 5 mM PIPES 100 mM NaCl pH 7.2, read-out: minimal inhibitory concentration (MIC)) | biological accessibility, fraction of the available dose ([1]; sequestration by anionic polyelectrolytes of CF sputum) | NaCl concentration up to which the F-actin-lysozyme close pack bundling peak increases (F-actin) | salt concentration above which the lysozyme-actin bundling peak disappears (F-actin; NaCl) |
| --- | --- | --- | --- | --- | --- | --- | --- | --- | --- | --- | --- |
| NC[C@H]1O[C@H](O[C@H]2[C@H](O)[C@@H](O[C@H]3O[C@H](CO)[C@@H](O)[C@H](N)[C@H]3O)[C@H](N)C[C@@H]2N)[C@H](N)C[C@@H]1O [tobramycin] | ~1 | 1.9 mM | preferentially interacts with DNA over F-actin | again unsequestered by the DNA | sequestered by DNA | not sequestered | 20 × the minimal inhibitory concentration (MIC) | ~5 µg/mL (≈ 10.7 µM) | 1/20 | – | – |
| lysozyme: Hen Egg White Lysozyme (MW 14,300, Sigma Aldrich) | – | – | – | – | – | – | – | – | – | ~150 mM | above 200 mM |
